Source: publication PMC6754136 (PLoS ONE, 2019)
“Also recorded” adds a separate entry of the source. Like-named read-outs stand apart in the source and are kept apart here.

Columns and labels:
[1] = mitochondrial viability assay with resazurin; assay type: cell-based, human; conditions: human, 0.01–10 μM; for viability at 3 days: marked reduction in at least one cell line; for viability at 3 days, 10 μM: four cell lines, even at the highest concentration tested (10 μM)
Protocol: The human cell lines SH-SY5Y (SY5Y, ATCC CRL-2266), SK-MEL-5 (SKMEL-5, ATCC HTB-70), and NCI-H187 (H187, ATCC CRL-5804) were cultured in RPMI medium supplemented with 10% FBS and no antibiotics. These three cell lines were generously provided by the laboratory of Susan Lindquist via Luke Whitesell (currently at the University of Toronto, Toronto, ON, Canada). BJ-hTERT (described in [27], generously provided by Robert Weinberg, Whitehead Institute, Cambridge MA, USA) was cultured in 4:1 DMEM:M199 medium supplemented with 15% FBS and no antibiotics. All cell lines were grown and assayed at 37 °C, 5% CO2. All cell lines were screened for mycoplasma contamination by PCR (Mycoscope Detection Kit, Fisher Scientific) before use in assays.
For viability assays, cells were plated in black, clear bottom 384-well tissue culture-treated plates (Corning) and incubated overnight in the media described above but supplemented with 50 U/mL penicillin-streptomycin antibiotic (Life Technologies). Then, DMSO (no drug controls) and PDE5 inhibitors (0.01–10 μM; synthesized as described above or purchased from Selleck Chemicals) were added using a Hewlett-Packard D300 Digital Dispenser (Tecan) and incubated for 3 days. Maximum DMSO concentration was normalized to 0.1% of the total well volume for all wells. Resazurin (R & D Systems) was diluted 1:20 into each well and incubated for up to 4 hours. Fluorescence was read in a Tecan plate reader (excitation = 570 nm, emission = 585 nm). Wells treated with PDE5 inhibitors were normalized against control wells treated with DMSO to measure percent mitochondrial viability (100 = no effect on mitochondrial viability).

[2] = target: purified recombinant human PDE5 (Homo sapiens, UniProt O76074); test: in vitro PDE5 inhibition assay measuring GMP production from cGMP (HPLC-UV-MS); assay type: biochemical; conditions: for Fold improved potency (fold change in IC50 compared to icariin): relative to icariin; for fold increase in potency compared to the corresponding unglycosylated analog: 3 vs 6, 5 vs 8
Protocol: STRENDA guidelines were considered in the description of the following enzyme activity assays. PDE5 inhibition and kinetics assays were carried out according to the method of Kincaid and Manganiello [31] and Dell’Agli et al. 1 nM recombinant human PDE5 (catalytic domain consisting of amino acids 537–875, Abcam, ab125581) was pre-incubated with PDE5 inhibitors (synthesized in-house as described above or purchased from Selleck Chemicals) in 40 mM tris-hydrochloric acid, pH 7.8, containing 10 mM MgCl2. […]. PDE5 inhibitors were added to each reaction using a Hewlett-Packard D300 Digital Dispenser (Tecan). Maximum DMSO concentration was 0.1% of the final reaction volume for all samples. After incubation at 25 °C for 5 minutes to allow interaction between PDE5 and drugs, the reaction was started with the addition of 0.3 μM cGMP (Enzo Life Sciences, Inc.) and incubated at 25 °C for 15 minutes. The final reaction volume was 100 μL. Reactions were stopped with the addition of 100 μL of 0.1 M HCl and neutralized by adding 0.1 M NaOH until the pH was 7. […] The amount of GMP produced was measured by HPLC-UV-MS as described in the general procedures. Reaction mixture components were separated with a ramp gradient of solvent A and B run at a flow rate of 0.5 mL/min as follows: 0–4 minutes 0% B, 4–7 minutes 0–95% B, 7–8 minutes 95% B, 8–11.1 minutes 0% B. GMP was measured using selected reaction monitoring in positive mode for a centroid center mass of 152.
A calibration curve using known concentrations of GMP was generated using the HPLC-UV-MS method described above to quantify the absolute amount of GMP in each reaction (S13 Fig). The linear range was from 5.9 nM to 3 μM. The limit of detection (LOD), defined as the lowest concentration producing a detectable peak above background, was 0.1 nM. The lower limit of quantification (LLOQ), defined as the lowest concentration used to generate a standard curve with r^2 > 0.95, was 5.9 nM. The upper limit of quantification (ULOQ), defined as the highest concentration used to generate a standard curve with r^2 > 0.95, was 3 μM. A GMP calibration curve was generated with each individual run of the HPLC-UV-MS.
To measure the IC50 as a result of treatment with each icariin analog, the in vitro inhibition enzyme assay as described above was performed, and GMP levels were normalized to no-drug controls and multiplied by 100 to obtain the percent PDE5 activity. IC50 mean ± SEM values were determined by nonlinear-regression fitting of the percent PDE5 activity data using the [inhibitor] vs response–variable slope (four parameters) equation in Prism (version 7.0a and version 8). Top value was constrained to 100, all other parameters were unconstrained. To obtain the dose-response curves for visual confirmation of the best-fit line, we executed a nonlinear regression fitting using the log(inhibitor) vs. response—variable slope (four parameters) equation in Prism. […] AICc analysis (built into Prism) was used to confirm the best-fitting inhibition model. […] Inhibition models were also compared via visual inspection of the fit of the calculated curves on the Michaelis-Menten plots.

[3] = target: T1, partially purified recombinant human PDE6C (Homo sapiens, UniProt P51160); test: PDE6C inhibition assay (GMP production); assay type: biochemical
T1 construct: partially purified recombinant full-length human PDE6C; purchased SB Drug Discovery; host or cells: insect cells
Protocol: PDE6C inhibition was measured using the same method as described for PDE5 with modifications. […] The final reaction volume was 50 μL. […] Reactions were stopped as described above for PDE5 enzyme assays, and GMP was quantified as described above. […] The amount of GMP produced in these samples was subtracted from all samples before normalizing against untreated controls.

[4] = system: BJ-hTERT cells; test: cellular GMP levels after inhibitor treatment; assay type: cell-based, human; conditions: 20 μM inhibitor, 1 hour; mean ± SEM; p<0.001
Protocol: For assaying PDE5 inhibitor effects on GMP levels in a cell line, BJ-hTERT cells were plated in 6-well plates (Corning) in the media described above. When cells were 80% confluent, fresh, pre-warmed media with DMSO (untreated controls) or 20 μM sildenafil, 3, or 7 was added and incubated for 1 hour. Maximum DMSO concentration in all samples was 0.2% of the total well volume. Cells were washed once with cold 0.9% NaCl. 800 μL of 80:20 methanol:water spiked with 500 nM isotopically labeled amino acids as internal standards was added while cells were on dry ice. Cells were detached with a cell scraper. Extracts were vortexed for 10 minutes and centrifuged at maximum speed at 4 °C to remove debris. Extracts were dried down in a vacuum dryer and stored at -80 °C. An additional sample was reserved for visual inspection of cell health by confocal light microscopy and for cell counting with a hemocytometer. Three independent assays were conducted in total, with 1–2 replicates per assay. To analyze GMP levels, samples were reconstituted in 50 μL LC-MS grade water and analyzed by HPLC-UV-MS as described in the general procedures and for enzyme inhibition and kinetics assays. The amino acid standards were analyzed in full scan positive mode with mass windows m/z 50–800. GMP peak areas were normalized to the peak area of the internal standard ^13C4, ^15N-threonine or ^13C6, ^15N3-histidine to account for variations in extraction or resuspension volume. The peak areas were then normalized to the average GMP peak area in undrugged controls and multiplied by 100 to obtain the percent GMP.

[5] = target: recombinant human PDE5 (Homo sapiens, UniProt O76074); test: in vitro PDE5 kinetics assay (nonlinear regression, AICc model comparison); assay type: biochemical
Protocol: guidelines were considered in the description of the following enzyme activity assays. […] For kinetics assays, 0.015, 0.05, and 0.2 μM of compounds 3 and 7 were used. […] Maximum DMSO concentration was 0.1% of the final reaction volume for all samples. […] The final reaction volume was 100 μL. Reactions were stopped with the addition of 100 μL of 0.1 M HCl and neutralized by adding 0.1 M NaOH until the pH was 7. […] Reaction mixture components were separated with a ramp gradient of solvent A and B run at a flow rate of 0.5 mL/min as follows: 0-4 minutes 0% B, 4-7 minutes 0-95% B, 7-8 minutes 95% B, 8-11.1 minutes 0% B. GMP was measured using selected reaction monitoring in positive mode for a centroid center mass of 152. […] Top value was constrained to 100, all other parameters were unconstrained. To obtain the dose-response curves for visual confirmation of the best-fit line, we executed a nonlinear regression fitting using the log(inhibitor) vs. response-variable slope (four parameters) equation in Prism. […] AICc analysis (built into Prism) was used to confirm the best-fitting inhibition model. […] Inhibition models were also compared via visual inspection of the fit of the calculated curves on the Michaelis-Menten plots.

[6] = target: T2, bovine trypsin (Bos taurus, UniProt P00760); test: PAINS assay: non-specific inhibition of trypsin; assay type: biochemical; conditions: 1x and 10x the PDE5 IC50 (3 and 7 also 50x, 250x); luteolin 50, 100, 250 μM
T2 construct: purchased Sigma-Aldrich T1426
T2 sequence (P00760 24-246): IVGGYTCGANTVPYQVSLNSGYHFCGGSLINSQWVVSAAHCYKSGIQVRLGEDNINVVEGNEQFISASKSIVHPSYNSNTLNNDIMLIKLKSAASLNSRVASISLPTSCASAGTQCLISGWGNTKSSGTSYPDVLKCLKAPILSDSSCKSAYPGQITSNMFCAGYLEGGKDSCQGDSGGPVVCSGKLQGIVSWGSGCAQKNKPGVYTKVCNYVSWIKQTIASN
Protocol: In assay buffer (50 mM Tris-HCl, 20 mM CaCl2, pH 8.19 with or without 0.5% igepal), 0.002 mg freshly made trypsin is incubated with drugs for 5 minutes at 25 °C. 1 mM of substrate (Nα-benzoyl-L-arginine 4-nitroanilide hydrochloride, Sigma-Aldrich, B3133) is added to start the reaction. Final reaction volume is 100 μl. Product formation is monitored by increasing absorbance at 410 nm at 25 °C for 30 minutes in kinetic mode using a SpectraMax M5 plate reader (Molecular Devices). All values were measured in duplicate.

[7] = system: human PDE5; conditions: PDE5, competitive inhibitors; cited from earlier work
[8] = system: PDE6 isoforms; parameters: method as in PMID 16780568, PMID 16123402; conditions: cited from earlier work
[9] = 1 nM PDE5 catalytic domain, 0.3 μM cGMP, 25 °C, 15 min, mean of at least three replicates ± SEM, read-out: IC50

T1 sequence (P51160 whole entry): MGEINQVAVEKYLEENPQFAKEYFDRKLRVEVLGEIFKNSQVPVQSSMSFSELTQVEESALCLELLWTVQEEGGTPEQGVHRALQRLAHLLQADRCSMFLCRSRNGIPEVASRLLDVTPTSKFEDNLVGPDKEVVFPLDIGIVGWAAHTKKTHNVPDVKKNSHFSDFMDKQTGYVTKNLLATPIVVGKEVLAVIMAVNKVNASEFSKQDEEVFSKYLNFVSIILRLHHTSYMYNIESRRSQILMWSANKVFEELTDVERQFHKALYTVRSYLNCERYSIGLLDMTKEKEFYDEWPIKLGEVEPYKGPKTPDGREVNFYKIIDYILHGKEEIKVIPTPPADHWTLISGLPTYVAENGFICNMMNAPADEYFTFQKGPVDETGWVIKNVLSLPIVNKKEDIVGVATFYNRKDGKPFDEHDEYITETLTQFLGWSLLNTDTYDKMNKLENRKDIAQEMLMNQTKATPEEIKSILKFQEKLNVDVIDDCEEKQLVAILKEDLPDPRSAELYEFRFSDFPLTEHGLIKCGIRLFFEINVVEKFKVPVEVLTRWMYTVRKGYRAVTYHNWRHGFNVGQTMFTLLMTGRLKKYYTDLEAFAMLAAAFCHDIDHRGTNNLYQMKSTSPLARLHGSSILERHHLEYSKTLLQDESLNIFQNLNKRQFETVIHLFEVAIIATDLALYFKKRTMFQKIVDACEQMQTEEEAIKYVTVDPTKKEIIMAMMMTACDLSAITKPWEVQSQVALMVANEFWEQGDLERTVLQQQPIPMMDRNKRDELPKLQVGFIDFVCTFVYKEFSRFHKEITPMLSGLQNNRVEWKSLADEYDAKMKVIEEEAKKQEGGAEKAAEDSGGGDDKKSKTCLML

## COc1ccc(-c2oc3c(CC=C(C)C)c(O[C@@H]4O[C@H](CO)[C@@H](O)[C@H](O)[C@H]4O)cc(O)c3c(=O)c2O)cc1 [Compound 2, Icariside I]
[1]
  viability at 3 days: ≤ 70%
[2]; [9]
  IC50: 2.1 ± 0.8 µM
[2]
  Fold improved potency (fold change in IC50 compared to icariin): 3 fold

## COc1ccc(-c2oc3c(CC=C(C)C)c(OC4OC(CO)C(O)C(O)C4O)cc(O)c3c(=O)c2OCCO)cc1 (stereo not drawn) [Compound 3, 3-O-(2-Hydroxyethyl)-Icariside I]
[1]
  viability at 3 days, 10 μM: > 70%
[3]
  specificity for PDE5 over PDE6C: shows specificity for PDE5 over PDE6C
[3]; at 50x the PDE5 IC50, vs theoretical uninhibited mean of 100%
  PDE6C inhibition, statistical significance: do not show any statistically significant PDE6C inhibition
[4]
  cellular GMP concentration, % of the GMP concentration in untreated control cells: 9 ± 0.6%
[2]
  fold increase in potency compared to the corresponding unglycosylated analog: 5 fold
[5]; AICc comparison of competitive vs noncompetitive inhibition
  Preferred model: Competitive inhibition
[5]; AICc comparison of competitive vs uncompetitive inhibition
  Preferred model: Competitive inhibition
[5]; AICc, compared to a noncompetitive or uncompetitive model
  probability that the competitive inhibition model is correct: > 99%
[5]; AICc, competitive vs noncompetitive inhibition
  Probability it is correct (competitive inhibition): 99.97%
[5]; AICc, competitive vs uncompetitive inhibition
  Probability it is correct (competitive inhibition): >99.99%
[5]; Lineweaver-Burk plot and AICc analysis
  mode of inhibition: competitive inhibitor; also recorded: inhibits PDE5 competitively

## COc1ccc(-c2oc3c(CC=C(C)C)c(OC4OC(CO)C(O)C(O)C4O)cc(O)c3c(=O)c2OCCCO)cc1 (stereo not drawn) [Compound 4, 3-O-(3-Hydroxypropyl)-Icariside I]
[1]
  viability at 3 days: ≤ 70%
[2]; [9]
  IC50: 0.8 ± 0.5 µM
[2]; 4 vs 7
  fold decrease in potency compared to the corresponding unglycosylated compound 7: 6 fold
[2]
  Fold improved potency (fold change in IC50 compared to icariin): 8 fold

## COc1ccc(-c2oc3c(CC=C(C)C)c(OC4OC(CO)C(O)C(O)C4O)cc(O)c3c(=O)c2OCC(C)O)cc1 (stereo not drawn) [Compound 5, 3-O-(2-Hydroxypropyl)-Icariside I]
[1]
  viability at 3 days, 10 μM: > 70%
[2]
  fold increase in potency compared to the corresponding unglycosylated analog: 3 fold
  Fold improved potency (fold change in IC50 compared to icariin): 12 fold

## COc1ccc(-c2oc3c(CC=C(C)C)c(O)cc(O)c3c(=O)c2OCC(C)O)cc1 (stereo not drawn) [Compound 8, 3-O-(2-Hydroxypropyl)-Icaritin]
[2]; [9]
  IC50: 1.5 ± 0.6 µM
[2]
  Fold improved potency (fold change in IC50 compared to icariin): 4 fold

## COc1ccc(-c2oc3c(CC=C(C)C)c(O)cc(O)c3c(=O)c2O)cc1 [Compound 9, Icaritin]
[2]
  IC50: 1.8 ± 0.8 µM
  Fold improved potency (fold change in IC50 compared to icariin): 3 fold
[6]
  inhibition of trypsin activity: statistically significant inhibition of trypsin activity (p<0.05)

## O=c1cc(-c2ccc(O)c(O)c2)oc2cc(O)cc(O)c12 [luteolin, reference compound]
[6]
  inhibition of trypsin activity: statistically significant inhibition of trypsin activity (p<0.001)

## CCCc1nc(C)c2c(=O)[nH]c(-c3cc(S(=O)(=O)N4CCN(CC)CC4)ccc3OCC)nn12 [vardenafil]
[7]
  IC50: […]
[8]
  inhibition of PDE6 isoforms: show inhibition of PDE6 isoforms
